Source: patent US8470587B2, “129Xe biosensors and their use” (The Trustees of the University of Pennsylvania, priority 2006, dated 2013)
Ends that are not written are not given here.

What was measured:
[1] = 278 K in C2D2Cl4; cited from earlier work
NCI-H1975 = assay: cellular uptake by confocal microscopy; type: cell-based; settings: 15 minutes incubation; 2 μM, 2 mM; cells expressing αvβ3 integrin
Description: (§1) Cells were incubated with 2 mM tetraRGD-cryptophane for 15 minutes, washed, and imaged via confocal microscope. […] A-B) CAPAN-2, C-D) HFL-1, E-F) NCI-H1975, G-H) human red blood cells.
(§2) Cellular uptake was confirmed via confocal microscopy. Cells were incubated with 2 μM tetraRGD-cryptophane for 15 minutes, washed, and imaged via confocal microscope. […] A-B) CAPAN-2, C-D) HFL-1, E-F) NCI-H1975, G-H) human red blood cells.

HFL-1 = assay: cellular uptake by confocal microscopy; type: cell-based; settings: 15 minutes incubation; 2 μM, 2 mM; cells expressing αvβ3 integrin
Description: as §1, §2

CAPAN-2 = assay: cellular uptake by confocal microscopy; type: cell-based; settings: 15 minutes incubation; 2 μM, 2 mM; cells expressing αvβ3 integrin
Description: as §1, §2

human red blood cells = assay: cellular uptake by confocal microscopy; type: cell-based; settings: 15 minutes incubation; 2 μM, 2 mM; cells not expressing αvβ3; listed as tetraRGD-cryptophane
Description: as §1, §2

[2] = test system: lung and pancreatic cancer cell lines; assay: cell uptake of tetraRGD Xe biosensor, blocking by cyclic RGD peptide; type: cell-based
Excerpt: Very efficient uptake by Xe biosensors containing tetraRGD was found in lung and pancreatic cancer cell lines, and no uptake by red blood cells, as shown in FIGS. 26 and 27.

cells = assay: cytotoxicity, standard MTT assay; type: cell-based; settings: 1-100 μM, 24 h soak, average of four trials
Description: Cytotoxicity was assessed using a standard MTT assay protocol.

Compound | KA of xenon binding [1] | cellular uptake (fluorescence) (NCI-H1975) | cellular uptake (fluorescence) (HFL-1) | cellular uptake (fluorescence) (CAPAN-2) | cellular uptake (fluorescence) (human red blood cells) | cell uptake in presence of cyclic RGD peptide [2] | cytotoxicity (cell viability relative to healthy controls) (cells) | cytotoxicity (cell viability relative to healthy controls) (cells; listed as Cy3 dye-labeled ^129Xe biosensor)
COc1cc2c3cc1OCCOc1cc4c(cc1OC)Cc1cc5c(OC)cc1Cc1cc(c(OC)cc1C4)OCCOc1cc(c(cc1OC)C3)Cc1cc(OC)c(cc1C2)OCCO5 [cryptophane-A] | 3900 M⁻¹ | – | – | – | – | – | – | –
Cy3-labelled ^129Xe biosensor: cryptophane biosensor containing the tetra-RGD peptide (RGDRGDRGDRGD, SEQ ID. No. 30), labeled with Cy3, targeting αvβ3 integrin (also: cryptophane cage conjugated, Cy3 labeled; listed as Homo sapiens) | – | exhibited fluorescence | exhibited fluorescence | exhibited fluorescence | showed little fluorescence | blocked | non-toxic | not toxic
